In article PMC5618414, “FVIIa-sTF and Thrombin Inhibitory Activities of Compounds Isolated from Microcystis aeruginosa K-139” (Marine Drugs, 2017):
pEC50: −log10 of the molar value. Where “and” joins values, the source holds several entries; their conditions need not be identical. Equal entries are not always repeated. Where two headings read alike, the source gives them in different places.

Assays:
fVIIa-sTF = fVIIa-sTF (Homo sapiens, UniProt P08709); experiment: fVIIa-sTF inhibitory assay; assay type: biochemical; conditions: for pEC50: 95% confidence using GraphPad Prism 7; for Thrombin/FVIIa-sTF EC50 Ratio: thrombin EC50 divided by fVIIa-sTF EC50
Chain of fVIIa-sTF (P08709 61-212 limits assumed): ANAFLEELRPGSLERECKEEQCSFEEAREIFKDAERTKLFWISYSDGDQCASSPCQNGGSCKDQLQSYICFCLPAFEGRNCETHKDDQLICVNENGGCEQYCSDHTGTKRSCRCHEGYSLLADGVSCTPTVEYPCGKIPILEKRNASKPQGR
Chain of fVIIa-sTF (P08709 213-466 limits assumed): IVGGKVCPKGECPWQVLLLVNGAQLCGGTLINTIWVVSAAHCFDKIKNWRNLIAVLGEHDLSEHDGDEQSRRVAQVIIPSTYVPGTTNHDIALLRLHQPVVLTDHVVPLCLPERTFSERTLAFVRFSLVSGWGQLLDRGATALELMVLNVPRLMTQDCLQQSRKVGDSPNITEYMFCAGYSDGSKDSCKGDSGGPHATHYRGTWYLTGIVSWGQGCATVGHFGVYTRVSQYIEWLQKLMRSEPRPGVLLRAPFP
Chain of fVIIa-sTF (P13726 33-251 partner limits assumed): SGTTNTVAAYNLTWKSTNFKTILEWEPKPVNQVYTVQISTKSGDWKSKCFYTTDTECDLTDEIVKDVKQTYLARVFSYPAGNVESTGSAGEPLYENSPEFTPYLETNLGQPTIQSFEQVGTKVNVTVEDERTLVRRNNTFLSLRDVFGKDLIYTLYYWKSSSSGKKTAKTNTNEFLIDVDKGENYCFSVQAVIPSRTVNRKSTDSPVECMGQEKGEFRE
Experimental: The compounds isolated from M. aeruginosa K139 were subjected to fVIIa-sTF and thrombin assays at 10 μg/mL and 100 μg/mL. […] Our microviridin B was isolated from the strain of M. aeruginosa K139. […] We used ethanol or water as negative controls.
The fVIIa-sTF and thrombin assays have been previously described in previous papers. […] A 1 mg/mL EtOH solution was prepared and independently diluted to make 750, 500, 250, 100, 75, 50, 25, 10, 5.0, 2.5, and 1.0 μg/mL. The same experimental procedure was done in all fVIIa-sTF and thrombin assays as previously described. A 20-μL solution was added in each well, in replicate, to make a final concentration of 100, 75, 50, 250, 100, 75, 50, 25, 10, 5.0, 2.5, and 1.0 μg/mL.

thrombin [1] = target: T1, thrombin (Homo sapiens, UniProt P00734); experiment: thrombin inhibitory assay; assay type: biochemical; conditions: for thrombin inhibition (in words): at 10 μg/mL and 100 μg/mL (low and high doses)
T1 construct: subjected to fVIIa-sTF and thrombin assays
Experimental: The compounds isolated from M. aeruginosa K139 were subjected to fVIIa-sTF and thrombin assays at 10 μg/mL and 100 μg/mL. […] The micropeptin K139 gave a favorable fVIIa-sTF activity at 10 μg/mL and 100 μg/mL with inhibitory activity greater than 50% and 85%, respectively. […] The EC50 of each compound was computed by GraphPad Prism 7 [34], with 95% confidence. […] A difference in activity for the same compound may be attributed to the different cyanobacterial strains used in the study. Our microviridin B was isolated from the strain of M. aeruginosa K139. Okino’s group isolated the compound from the NIES-102 cyanobacterial strain. […]. […] We used ethanol or water as negative controls.
The fVIIa-sTF and thrombin assays have been previously described in previous papers. The half maximal effective concentration (EC50) compounds isolated from M. aeruginosa K139 was done in three plates, with two replicates in each of plate. A 1 mg/mL EtOH solution was prepared and independently diluted to make 750, 500, 250, 100, 75, 50, 25, 10, 5.0, 2.5, and 1.0 μg/mL. The same experimental procedure was done in all fVIIa-sTF and thrombin assays as previously described. A 20-μL solution was added in each well, in replicate, to make a final concentration of 100, 75, 50, 250, 100, 75, 50, 25, 10, 5.0, 2.5, and 1.0 μg/mL. The EC50 was calculated from GraphPad Prism 7^© [34], with 95% confidence.

thrombin [2] = target: T1, thrombin; conditions: literature, cited from earlier work
chymotrypsin = system: chymotrypsin; parameters: method as in PMID 19260658; conditions: literature; cited from earlier work
[3] = 95% confidence using GraphPad Prism 7, read-out: Thrombin: EC50

CC[C@H](C)[C@@H]1NC(=O)[C@H](Cc2ccc(O)cc2)N(C)C(=O)[C@H](CC(C)C)N2C(=O)[C@H](CC[C@H]2O)NC(=O)[C@H](Cc2ccc(O)cc2)NC(=O)[C@@H](NC(=O)[C@H](CCC(N)=O)NC(=O)[C@H](O)Cc2ccc(O)cc2)[C@@H](C)OC1=O [917S-A]
fVIIa-sTF inhibitory activity (in words) (fVIIa-sTF; at 100 μg/mL): negative inhibitory activity

CCC(C)C1NC(=O)C(Cc2ccc(O)cc2)N(C)C(=O)C(CC(C)C)N2C(=O)C(CCC2O)NC(=O)C(CC2C=CC(O)CC2)NC(=O)C(NC(=O)C(CCC(N)=O)NC(=O)C(O)Cc2ccc(O)cc2)C(C)OC1=O (stereo not drawn) [917S-B]
fVIIa-sTF inhibitory activity (in words) (fVIIa-sTF; at 100 μg/mL): negative inhibitory activity

CC[C@H](C)[C@@H]1NC(=O)[C@H](Cc2ccc(O)cc2)N(C)C(=O)[C@H](CC(C)C)N2C(=O)[C@H](CC[C@H]2O)NC(=O)[C@H](CC(C)C)NC(=O)[C@@H](NC(=O)[C@H](CCC(N)=O)NC(=O)[C@H](O)Cc2ccc(O)cc2)[C@@H](C)OC1=O [917S-C]
fVIIa-sTF inhibitory activity (in words) (fVIIa-sTF; at 100 μg/mL): negative inhibitory activity

N=C(N)c1ccc(CS(=O)(=O)F)cc1 [APMSF, 4-amidinophenylmethanesulfonylfluoride]
pEC50 (thrombin [1]): 5.68

CC(C)CC(NC(=O)C(O)Cc1ccc(O)cc1)C(=O)N1C(C(=O)NC2CCCN(C(=N)N)C2O)CC2CCC(O)CC21 [Aeruginosin K139, L-Hpla-L-Leu-L-Choi-L-Argal]
pEC50 (fVIIa-sTF): 3.78 and ~3.78 | fVIIa-sTF inhibitory activity (in words) (fVIIa-sTF; at 100 μg/mL): active | Thrombin/FVIIa-sTF EC50 Ratio (fVIIa-sTF): 0.004 | pEC50 (thrombin [1]; [3]): 6.18 | thrombin inhibition (in words) (thrombin [1]): inhibited thrombin

CC(=O)N[C@@H](CC(C)C)C(=O)N[C@@H](CC(C)C)C(=O)N[C@H](C=O)CCCNC(=N)N [Leupeptin]
pEC50 (fVIIa-sTF): 4.85 | Thrombin/FVIIa-sTF EC50 Ratio (fVIIa-sTF): 1.31 | pEC50 (thrombin [1]; [3]): 4.74

CCCCCC(=O)N[C@@H](CC(=O)O)C(=O)N[C@@H]1C(=O)N[C@@H](CCCNC(=N)N)C(=O)N[C@H]2CC[C@@H](O)N(C2=O)[C@@H]([C@@H](C)CC)C(=O)N(C)[C@@H](Cc2ccc(O)cc2)C(=O)N[C@@H]([C@@H](C)CC)C(=O)O[C@@H]1C [Micropeptin K139]
pEC50 (fVIIa-sTF): 4.97 | inhibition at 10 µg/mL (fVIIa-sTF; at 10 μg/mL): > 50% | inhibition at 100 µg/mL (fVIIa-sTF; at 100 μg/mL): > 85% | Thrombin/FVIIa-sTF EC50 Ratio (fVIIa-sTF): 2.54 | Thrombin/FVIIa-sTF EC50 Ratio (fVIIa-sTF; listed as micropeptin K139): greater than one | pEC50 (thrombin [1]; [3]): 4.57 | thrombin inhibition (in words) (thrombin [1]): inhibited thrombin

CCCCCCCC(=O)N[C@@H](CCC(=O)O)C(=O)N[C@@H]1C(=O)N[C@@H](CCCCN)C(=O)N[C@H]2CC[C@@H](O)N(C2=O)[C@@H](CC(C)C)C(=O)N(C)[C@@H](Cc2ccc(O)cc2)C(=O)N[C@@H](C(C)C)C(=O)O[C@@H]1C [micropeptin A]
thrombin inhibitory assay (in words) (thrombin [2]): inactive | thrombin inhibitory assay (in words) (thrombin [2]; listed as Micropeptin A): does not inhibit thrombin

CCCCCC(=O)N[C@@H](CCC(=O)O)C(=O)N[C@@H]1C(=O)N[C@@H](Cc2ccc(O)cc2)C(=O)N[C@H]2CC[C@@H](O)N(C2=O)[C@@H](Cc2ccccc2)C(=O)N(C)[C@@H](Cc2ccc(O)cc2)C(=O)N[C@@H](C(C)C)C(=O)O[C@@H]1C [micropeptin C]
chymotrypsin EC50 (chymotrypsin): 1.1 µg/mL

CCCCCCCC(=O)N[C@@H](CCC(=O)O)C(=O)N[C@@H]1C(=O)N[C@@H](Cc2ccc(O)cc2)C(=O)N[C@H]2CC[C@@H](O)N(C2=O)[C@@H](Cc2ccccc2)C(=O)N(C)[C@@H](Cc2ccc(O)cc2)C(=O)N[C@@H](C(C)C)C(=O)O[C@@H]1C [micropeptin D]
chymotrypsin EC50 (chymotrypsin): 1.2 µg/mL

CCCCCC(=O)N[C@@H](CCC(=O)O)C(=O)N[C@@H]1C(=O)N[C@@H](Cc2ccc(O)cc2)C(=O)N[C@H]2CC[C@@H](O)N(C2=O)[C@@H](CC(C)C)C(=O)N(C)[C@@H](Cc2ccc(O)cc2)C(=O)N[C@@H](C(C)C)C(=O)O[C@@H]1C [micropeptin E]
chymotrypsin EC50 (chymotrypsin): 1.0 µg/mL

CCCCCCCC(=O)N[C@@H](CCC(=O)O)C(=O)N[C@@H]1C(=O)N[C@@H](Cc2ccc(O)cc2)C(=O)N[C@H]2CC[C@@H](O)N(C2=O)[C@@H](CC(C)C)C(=O)N(C)[C@@H](Cc2ccc(O)cc2)C(=O)N[C@@H](C(C)C)C(=O)O[C@@H]1C [micropeptin F]
chymotrypsin EC50 (chymotrypsin): 1.5 µg/mL
